Key:
Assay type in all cases: cell-based, rat
[1] = test system: p42/44 MAPK (Thr202/Tyr204); experiment: Western blot of MAPK phosphorylation in H4IIE cells; settings: for effect of the inhibitor on insulin- and BWE-stimulated phosphorylation of MAPK: preincubation with inhibitor, then insulin or BWE for 6 minutes; for p42/44 P-MAPK (Thr202/Tyr204) phosphorylation, stimulation (fold) relative to the control / phosphorylation of MAPK, stimulation (fold) relative to the control (Table 6): 6 min, one experiment
Description: Tissue culture media, antibiotics, fetal bovine serum (FBS) and Nunc tissue culture plates were purchased from Invitrogen Canada Inc. (Burlington, Ontario, Canada, L7P 1A1). Insulin (Sigma-Aldrich Canada Ltd., Oakville, Ontario, Canada, L6H 6J8) was dissolved in water and added directly to cells at a concentration of 250 nM unless otherwise indicated. The BWE was prepared and analyzed as described in Example 1. Two μL of the BWE were added directly to cells unless otherwise indicated. […] Myo-inositol (Sigma-Aldrich Canada Ltd.) and D-chiro-inositol (Industrial Research Ltd., Wellington, New Zealand) were dissolved in water at an equal concentration to the amounts present in the BWE (Table 3) and 2 μL of each solution (0.1% v/v final concentration) was added directly to cells.
(§1) Rat H4IIE hepatoma cells (American Type Culture Collection, CRL 1548) were cultured following the method disclosed by Yau et al., (1998, Eur. J. Biochem. 253: 91-1). The H4IIE cells were maintained in α-modified Eagle's media containing 10% FBS, 2 mM glutamine, 25 μg·mL^−1 streptomycin and 25 units·mL^−1 penicillin. Cells were plated and grown to 70% confluence. All cells were placed into serum-free medium for 72 h before addition of stimulating agents to ensure entry into a quiescent state.
(§2) Cultures of quiescent H4IIE cells or quiescent FAO cells were placed into 12-well culture dishes containing 2 mL serum-free medium, and then stimulated by direct addition of the inhibitors listed in Table 1 (volumes of additions were 10 μL or less) without replacing the medium. […] The cells in 12-well culture dishes were incubated with stimulating agents for 6 minutes and rinsed with phosphate buffered saline (PBS; 0.9% NaCl, 0.1 M Na3PO4, pH 7.1).
(§3) Cellular protein extracts were prepared by addition of 200 μL 2×SDS/gel loading buffer (0.125 M Tris pH 6.8, 2% SDS, 10% glycerol) to H4IIE cells in 12-well culture dishes. The samples were briefly sonicated, and protein content measured using the BCA protein assay kit. Aliquots containing equal amounts of protein were mixed with bromophenol blue (0.5% (w/v) final concentration) and 2-mercaptoethanol (5% (v/v) final concentration), heated at 95° C. and loaded onto 7.5% or 10% polyacrylamide gels. […] Primary antibodies (diluted 1:1000 in 3% (w/v) BSA) were incubated with the membrane for 60 min at 22° C. Membranes were subsequently washed four times and incubated for an additional 60 min at 1 8-22° C. in 1% (w/v) BSA-TBST with diluted HRP-coupled secondary antibody (1:10 000). HRP was detected using the ECL chemiluminescent system after the membranes had been washed four times.
Quantification of data obtained on film (Kodak X-omat) was accomplished with a GS800 imaging densitometer (Bio-Rad Laboratories) under nonsaturating conditions with local background subtraction. Although multiple exposures were acquired to ensure the absence of film saturation, the experimental figures typically show longer exposures selected specifically for visual presentation and not necessarily used for data analysis. Graphical data are presented as means±SE for a minimum of three replicate samples. […]

[2] = test system: H4IIE cells; experiment: 3H-deoxyglucose uptake by H4IIE cells; settings: H4IIE cells; pre-incubated with inhibitor, then insulin
Description: Tissue culture media, antibiotics, fetal bovine serum (FBS) and Nunc tissue culture plates were purchased from Gibco-BRL (division of Invitrogen Canada Inc.). Insulin (Sigma-Aldrich Canada Ltd.) was dissolved in water and added directly to cells at a final concentration of 10^−6 M. The buckwheat extract was prepared and analyzed as in Example 1. Two μL of the buckwheat extract were added directly to cells unless otherwise indicated. Myo-inositol (Sigma Aldrich Canada Ltd.) and D-chiro-inositol (Industrial Research Ltd.) were dissolved in water at an equal concentration to the amounts present in the BWE (Table 3) and 2 μL of each solution was added directly to cells.
as §1, with “as described in Example 3. Briefly,” for “following the method disclosed by Yau et al., (1998, Eur. J. Biochem. 253: 91-1). The H4IIE”, “50” for “25”, “50 μg·mL^−1” for “25 units·mL^−1”
^3H-deoxyglucose uptake was assayed using the method disclosed by Harrison et al. (1990, J. Biol. Chem. 265(10):5793-5801). Quiescent H4IIE cells, in 24-well culture dishes containing 1 mL serum-free medium, were washed three times with physiological salt solution (PSS) ([…], pH 7.4). Cells were placed into 0.5 mL PSS and pre-incubated with inhibitors for 10 minutes prior to the 20 minute stimulation with treatments (insulin, BWE, D-CI, MI). For all experiments, insulin was added at a concentration of 10^−6 M whereas 2 μL volumes of the BWE, D-CI, or MI (0.4% v/v final concentration) were added to cells unless otherwise indicated in figures. Sugar uptake was initiated by the addition of ^3H-deoxyglucose to a final assay concentration of 0.1 mM glucose (1 mCi/mL) and the cells were subsequently incubated for 5 minutes at 37° C. After two rapid washes with ice-cold PSS (0.5-1 mL/well), the cells were solubilized with 0.4 mL of 0.1% SDS, and ^3H was detected in 3 mL of EcoLume scintillant (MP Biomedicals Inc., Costa Mesa, Calif., USA, 92626).
Statistical significance between treatments was determined by one-way ANOVA and by Duncan's multiple range test for means testing (SAS v.9.1, SAS Institute Inc., Cary, N.C.). […] Data are expressed as the mean±SE.
Since insulin has the same effect, we compared the ability of BWE, insulin and two insulin-mimetic compounds (D-CI and MI) to stimulate glucose uptake by H4IIE hepatoma cells. […] Radio-labelled deoxyglucose was added to the medium and glucose uptake was determined by the detection of ^3H in cells.
Fractions (˜1.0 ml) from each solvent extraction were collected and assayed for their effects on MAPK activation as described in Example 3. The effects of selected fractions, alone or in combination with insulin, on the uptake of labelled glucose were assessed following the methods described in Example 4. […] The effects of the solvent fractions on H4IIE cells were assessed with 20-min exposure periods after which, sugar uptake was initiated by the addition of ^3H-deoxyglucose to a final assay concentration of 0.1 mM glucose (1 mCi/mL) and the cells were subsequently incubated for 5 minutes at 37° C. After two rapid washes with ice-cold PSS (0.5-1 mL/well), the cells were solubilized with 0.4 mL of 0.1% SDS, and ^3H was detected in 3 mL of EcoLume scintillant. […]

[3] = test system: PDK-1 (Ser241); experiment: Western blot of PDK-1 phosphorylation in H4IIE cells; settings: 6 min, one experiment
Description: (§4) Tissue culture media, antibiotics, fetal bovine serum (FBS) and Nunc tissue culture plates were purchased from Invitrogen Canada Inc. (Burlington, Ontario, Canada, L7P 1A1). Insulin (Sigma-Aldrich Canada Ltd., Oakville, Ontario, Canada, L6H 6J8) was dissolved in water and added directly to cells at a concentration of 250 nM unless otherwise indicated. The BWE was prepared and analyzed as described in Example 1. Two μL of the BWE were added directly to cells unless otherwise indicated. This amount was chosen on the basis of equivalence to insulin. Myo-inositol (Sigma-Aldrich Canada Ltd.) and D-chiro-inositol (Industrial Research Ltd., Wellington, New Zealand) were dissolved in water at an equal concentration to the amounts present in the BWE (Table 3) and 2 μL of each solution (0.1% v/v final concentration) was added directly to cells.
as §1, §2, §3
(§5) Quantification of data obtained on film (Kodak X-omat) was accomplished with a GS800 imaging densitometer (Bio-Rad Laboratories) under nonsaturating conditions with local background subtraction. Although multiple exposures were acquired to ensure the absence of film saturation, the experimental figures typically show longer exposures selected specifically for visual presentation and not necessarily used for data analysis. Graphical data are presented as means±SE for a minimum of three replicate samples.

[4] = test system: Raf (Ser259); experiment: Western blot of Raf phosphorylation in H4IIE cells; settings: 6 min, one experiment
Description: as §4, §1, §2, §3, §5

[5] = BWE-stimulated, 15-min preincubation with the inhibitor (None = BWE alone)
[6] = insulin-stimulated, 15-min preincubation with the inhibitor (None = insulin alone)
[7] = BWE treatment, 15-min preincubation with PKA/PKC inhibitor (None = BWE alone)
[8] = insulin treatment, 15-min preincubation with PKA/PKC inhibitor (None = insulin alone)

Row | Compound | effect of the inhibitor on insulin- and BWE-stimulated phosphorylation of MAPK [1] | PDK-1 (Ser241) phosphorylation, stimulation (fold) relative to the control [3, 5] | PDK-1 (Ser241) phosphorylation, stimulation (fold) relative to the control [3, 6] | p42/44 P-MAPK (Thr202/Tyr204) phosphorylation, stimulation (fold) relative to the control [1, 5] | p42/44 P-MAPK (Thr202/Tyr204) phosphorylation, stimulation (fold) relative to the control [1, 6] | Raf (Ser259) phosphorylation, stimulation (fold) relative to the control [4, 5] | Raf (Ser259) phosphorylation, stimulation (fold) relative to the control [4, 6] | phosphorylation of MAPK, stimulation (fold) relative to the control (Table 6) [1, 7] | phosphorylation of MAPK, stimulation (fold) relative to the control (Table 6) [1, 8] | further results
1 | 1-butanol | required for stimulation of MAPK by insulin and the BWE | – | – | – | – | – | – | – | – | effect of the inhibitor on insulin-stimulated glucose uptake (FIG. 23) [2]: decreased insulin-stimulated glucose uptake although the effect was not significant
2 | N#C/C(=C/c1ccc(O)c(O)c1)C(=O)NCc1ccccc1 [AG490] | – | 0.89 fold | 1.91 fold | 12.9 fold | 16.4 fold | 0.16 fold | 0.13 fold | – | – | –
3 | CC(C)(C)c1cc(C=C(C#N)C#N)cc(Br)c1O [AG1024] | – | – | 2.30 fold | – | 16.74 fold | – | 0.26 fold | – | – | –
4 | Cn1c2ccccc2c2c3c(c4c5ccccc5n(CCC#N)c4c21)CNC3=O [Go6976] | – | – | – | – | – | – | – | 4.32 fold | 4.68 fold | –
5 | COc1ccc2c(c1)c1c3c(c4c5ccccc5n(C)c4c1n2CC(O)CN(C)C)C(=O)NC3=O (stereo not shown) [Go7874] | – | – | – | – | – | – | – | 3.10 fold | 2.60 fold | –
6 | O=c1cc(N2CCOCC2)oc2c(-c3ccccc3)cccc12 [LY294002] | – | 0.61 fold | 1.40 fold | 13.1 fold | 10.4 fold | 0.08 fold | 0.22 fold | – | – | –
7 | Cc1ccc(-c2nn(C(C)(C)C)c3ncnc(N)c23)cc1 [PP1] | required for stimulation of MAPK by the BWE only | – | – | – | – | – | – | – | – | –
8 | CC(=O)c1c(O)c(C)c(O)c(Cc2c(O)c3c(c(C(=O)/C=C/c4ccccc4)c2O)OC(C)(C)C=C3)c1O [Rottlerin] | – | – | – | – | – | – | – | 3.85 fold | 2.46 fold | –
9 | COc1ccc2c(c1)CC[C@@H]1[C@@H]2CC[C@]2(C)[C@@H](NCCCCCCN3C(=O)C=CC3=O)CC[C@@H]12 [U73] | – | 0.49 fold | 2.30 fold | 8.6 fold | 13.4 fold | 0.12 fold | 0.99 fold | – | – | –
10 | C[C@H]1CCC/C=C/[C@@H]2C[C@H](O)C[C@H]2[C@H](O)/C=C/C(=O)O1 [brefeldin, Brefeldin A] | not involved in this process | – | – | – | – | – | – | – | – | –

Reference: US7993687B2, “Compositions and methods for management of diabetes” (priority 2006, dated 2011)
